# Experimental data from article PMC2408655 (Journal of Neurochemistry, 2008).
# Like-named read-outs stand apart in the source and are kept apart here.
# How the values were obtained:
# [1] = target: T1, α-synuclein (AS) filaments (Homo sapiens, UniProt P37840); test: Radioligand competition assay of α-synuclein; format: binding; conditions: for displacement of the radioligand from the AS filaments: [3H]-Me-BTA1 radioligand, Fig. 3b
# [2] = target: Aβ fibrils; conditions: read-out: Kd and Ki values, Aβ, in vitro generated Aβ fibrils, cited from earlier work
# [3] = target: T1, α-synuclein (AS) filaments; test: Radioligand binding assay of α-synuclein
SMILES,displacement of the radioligand from the AS filaments [1],Ki ([2]; ref Lockhart et al. 2005) [nM],Kd ([2]; ref Lockhart et al. 2005) [nM],Kd [3] [nM],fold weaker binding than BF1 ([1]; Ki relative to BF1),Ki ([2]; ref Ye et al. 2005) [nM]
"CN(C)c1ccc(-c2cc3cc(Br)ccc3o2)cc1 [BF1, 5-bromo-2-(4-dimethylaminophenyl)benzofuran]",dose-dependent displacement,3,–,–,–,–
"CNc1ccc(-c2nc3ccc(C)cc3s2)cc1 [Me-BTA1, 2-[4′-(methylamino)phenyl]-6-methylbenzothiazole]",–,–,4.2,–,–,–
"CNc1ccc(-c2nc3ccc(O)cc3s2)cc1 [PIB, 2-[4′-(methylamino)phenyl]-6-hydroxybenzothiazole]",dose-dependent displacement,–,–,4.16,around fourfold weaker,25
